“Also recorded” adds a separate entry of the source.
How the values were obtained:
[1] = system: intact AMI dog model of LAD occlusion; test: Intact AMI dog model of LAD occlusion for 1 hour followed by reperfusion for 2 hours; type: in vivo; settings: for myocardial cell injury (histology): vs control (saline) group
Procedure: During ischemia, myocardial ATP levels decrease by 65% at 15 minutes and by 90% at 40 minutes, thus contractile performance in vivo decreases precipitously and ceases when only 20% of ATP and 75% of creatine phosphate are depleted. […] ATP synthesis continued during ischemia and its depletion was delayed resulting in over 85% preservation of pre-ischemic ATP level with a loss of only 15%, and 97% preservation of the CrP (loss of 3%) during ischemia. This significant preservation is crucial since ATP depletion of more than 20% ceases contractility. Control saline-treated hearts maintained only 66% of the ATP, with a loss of 34%, resulting in loss of reperfusion cardiac contractility. […] On the other hand, contractile function of control saline dogs was ceased completely after LAD occlusion and never recovered during reperfusion.

[2] = system: intact canine model of cold cardioplegic arrest; test: Intact canine model of cold cardioplegic arrest and aortic cross-clamping (bypass); type: in vivo, dog
Procedure: Dogs were injected intravenously with saline or CCr (500 mg/kg) for 1 hour before initiating the experiment.
Atrial fibrillation (AF) induces cardiac structural remodeling and there is a need to develop more mechanism-directed AF therapies that use the mitochondria as a novel potential therapeutic target in AF.

[3] = system: non-heartbeating dog model of heart transplantation; test: Non-heartbeating dog model of heart transplantation (warm ischemic arrest, ex vivo perfusion); type: in vivo
Procedure: Dog hearts underwent 1 hour of global warm ischemic arrest then hearts were explanted and perfused ex vivo for an additional 4 hours with a cold lactated ringers solution containing Cyclocreatine, while control hearts received cold lactated ringers solution alone. […] Similarly, the myocardium of the CCr dog maintained a tissue pH of 7.04±0.1 during the warm ischemia period of 1 hour and throughout the ex vivo perfusion interval, which was close to its baseline level of 7.11. On the other hand, tissue pH in control hearts fell to a nadir of 6.00±0.25 during the induction of warm ischemia and never returned back to baseline levels during the ex vivo preservation period.

Yorkshire pigs = test: Aortic cross-clamping for 30 minutes in Yorkshire pigs (paraplegia); type: in vivo, pig; settings: 30 minutes aortic cross-clamping, 4 days survival
Excerpt: The relationship between hypoxia and AD could open the avenue for effective preservation and pharmacological treatments of this neurodegenerative disease by using new therapeutic drugs like the novel bioenergetic drug, CCrP. CCrP provides protection of heart muscle against ischemic injury in CAD, UA, AMI, HF and cardiac surgical patients and thus save ischemic muscles from progressing to necrosis and heart failure, and will be protective against ischemic injury in stroke and AD. […] Since paraplegia following surgery of the descending thoracic aorta is a serious complication in adult and pediatric surgery, we tested the neuroprotective effect of Cyclocreatine in Yorkshire pigs which underwent 30 minutes of aortic cross-clamping then left to survive for 4 days. […] As indicated in Example 17, similar to heart tissue (Nourin-1), Nourin protein was quickly released within 5 minutes by brain (Nourin-2) and spinal cord (Nourin-3) in response to ischemia. Because of the great similarities between heart and brain and that they are both require high demand of ATP, CCrP will be as effective in preventing ischemic injury and restoring neurologic function in stroke and AD, similar to HF.

[4] = Crossing of the blood-brain barrier

## NC1=NCCN1CC(=O)O [Cyclocreatine]
[1]; CCr 60 minutes before LAD occlusion for 1 hour, saline 66%
  preservation of pre-ischemic ATP level: over 85%
[1]; CCr 60 minutes before LAD occlusion, saline 34%
  loss of ATP: 15%
[1]; at the end of 2 hours reperfusion
  neutrophil accumulation into the myocardium: reduces neutrophil accumulation
[1]; during ischemia
  loss of CrP: 3%
  preservation of the CrP: 97%
[1]; during the 2 hour reperfusion
  circulating Nourin protein in plasma: inhibiting the levels of circulating Nourin protein
[1]; immediately at reperfusion and for an additional 2 hours
  contractile function restored: over 80%
[1]
  myocardial cell injury (histology): significantly reduced myocardial cell injury
[1]; listed as CCr
  myocardial cell injury (histology): markedly less myocardial cell injury
[2]; CCr 500 mg/kg IV, throughout 4 hours of reperfusion, control 60%
  post-bypass cardiac output, of the baseline function: over 90%
[2]; all control dogs required defibrillation, listed as CCr
  resumption of contractility during reperfusion: without arrhythmias; also recorded: without the need for defibrillation
[3]; 1 hour warm ischemia and ex vivo perfusion, baseline 7.11, control nadir 6.00±0.25
  myocardial tissue pH: 7.04±0.1
[3]; after exsanguination, control average 2 minutes
  time to stop beating and develop asystole: 9 min
[3]; compared to control
  intracellular edema (diffusion weighted MRI): Reduced intracellular edema
  myocardial tissue lactic acidosis (spectroscopic MRI): Reduced myocardial tissue lactic acidosis
[3]; compared to controls
  cell injury marker Malondialdehyde: Reduced level
  myocardial ATP content: Three-fold increase
[3]; control dogs 3.86-fold increase over baseline
  reduction of Caspase enzyme activities, of baseline: 25%
Yorkshire pigs
  ability to stand and walk: Majority of Cyclocreatine-treated animals were able to stand and walk
[4]
  crossing of the blood-brain barrier: crosses the blood-brain barrier; also recorded: crosses the blood brain barrier

— patent publication US11761966B2, “Nourin gene-based RNA molecular network: novel early diagnostic and prognostic biomarkers for coronary artery disease, unstable angina, STEMI/NSTEMI and heart failure” (Nour Heart, Inc., priority 2018, dated 2023)
